Data as given in patent US20120225093A1, “Abrogating HIV-1 Infection via Drug-Induced Reactivation of Apoptosis” (UNIVERSITY OF MEDICINE AND DENTISTRY OF NEW JERSEY, priority 2010, published 2012).

Key:
293T cells = test: Apoptosis and viability of untransfected 293T cells (annexin V / 7AAD); type: cell-based, human; conditions: within 24 hr at concentrations used
Description: The cells were grown in DME medium (Sigma) and Jurkat cells in RPMI medium (Sigma), both supplemented with penicillin, streptomycin and 8% FBS. Quantitation of apoptosis and viability was performed with a BD FACSCalibur™ system using Annexin V-PE Apoptosis Detection Kit I (BD Biosciences, San Jose Calif.).

HIV-1 RNA = test: RNase protection assay of HIV RNA from molecular clones in 293T cells; type: cell-based; conditions: for accumulation of FF mRNA: pNL4-3-LucE- in 293T; for reduction of spliced and unspliced HIV RNAs: pNL4-3-LucE-, cytoplasmic and nuclear fractions, 12 hr
Description: 293T cells (2×10^6 cells) were seeded in 10-cmdiameter plates and transfected 20 hr later by using Transfectene (Bio-Rad) and treated with compounds. Cells were harvested at 15 hr post-transfection and suspended in a low salt buffer (10 mM Tris.HCl pH 7.4, 10 mM NaCl, 1.5 mM MgCl2, and 0.5% NP-40). Cells were vortexed for 10 sec and incubated on ice for 10 min. Cell extracts were centrifuged at 500×g for 3 min, followed by cytoplasmic and nuclear RNA isolation from the supernatant and the pellet, respectively, using Trizol (Invitrogen) according to the manufacturer's instructions.
RPA was performed with 10 μg of cytoplasmic RNA and 5 μg of nuclear RNA, using the RPAIII kit from Ambion (Austin, Tex.) according to the manufacturer's instructions. Synthesis of radiolabeled RNA and protection assays were performed as described in Young et al. Mol Cell Biol 2003, 23:6373-6384. To generate antisense RNA probe against the HIV-1 major splice site, firefly luciferase and Renilla luciferase pBSII-KS+HIV (+80-341), pSP-luc and pSP-rluc were linearized with HindIII, XbaI and BsaI, respectively. The resulting probes were 309, 390 and 245 nt long, respectively. The antisense HIV-1 leader RNA probe complementary to nt+83 to −117 of the LTR was generated by subcloning between the XbaI and HindIII sites of the pcDNA3.1 vector. Antisense probe corresponding to the N terminus of eIF5A was generated by subcloning 250 nt of its cDNA sequence into pcDNA3.1.
Next, the effects of CPX and DEF on viral mRNA expression were examined. […] To determine whether the action of CPX and DEF is exerted at the level of the accumulation, splicing or nucleo-cytoplasmic distribution of HIV RNA, pNL4-3-LucE- was transfected into 293T cells and monitored spliced and unspliced HIV RNA after drug treatment. RNase protection assays were carried out using a probe complementary to the 5′ region of all HIV-1 transcripts (Zheng et al. Nat Cell Biol 2003, 5:611-618). The probe spans the major splice donor site so two sizes of protected fragments are generated: unspliced RNA protects an RNA fragment 50 nucleotides (nt) longer than that from spliced RNAs (FIG. 4A). CPX and DEF, but not P2, reduced the level of both spliced and unspliced RNAs by ˜50% (FIG. 4B). […] In contrast, the production of Renilla luciferase RNA driven by the CMV promoter was unchanged in the nucleus and cytoplasm after drug treatment (FIG. 4B). […]
The rev-defective molecular clone pMRev(−) contains the entire HIV-1 genome but Rev expression is prevented by substitutions in its initiation codon. To compare the inhibitory effect of CPX and DEF in the presence and absence of Rev, cells were transfected with pMRev(−), either with or without a Rev expression vector, and RNA was analyzed by RPA as above. […]

eIF5A:DHS complex = target: T1, eIF5A:DHS complex (Homo sapiens, UniProt P49366); test: Co-immunoprecipitation of eIF5A with DHS from 293T cell extracts; type: cell-based; conditions: 293T transfected with FLAG-DHS
T1 construct: expressed in transfected cells; host or cells: 293T cells (FLAG-DHS transfected, eIF5A endogenous)
T1 sequence (P49366 1-369): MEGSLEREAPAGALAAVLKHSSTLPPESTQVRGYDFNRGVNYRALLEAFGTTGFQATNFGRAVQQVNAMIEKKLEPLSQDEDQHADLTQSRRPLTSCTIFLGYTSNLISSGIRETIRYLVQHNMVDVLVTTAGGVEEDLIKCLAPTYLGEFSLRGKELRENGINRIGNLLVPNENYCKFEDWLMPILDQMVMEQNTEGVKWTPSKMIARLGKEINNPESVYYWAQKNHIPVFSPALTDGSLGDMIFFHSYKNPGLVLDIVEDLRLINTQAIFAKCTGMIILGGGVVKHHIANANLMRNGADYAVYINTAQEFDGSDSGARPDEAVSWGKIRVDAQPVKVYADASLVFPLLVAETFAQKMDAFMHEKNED
Description: Immunoprecipitation and immunoblotting experiments were carried out as described previously in Hoque et al. Mol Cell Biol 2003, 23:1688-1702.
eIF5A forms tight complexes with its modifying enzymes. Unmodified eIF5A (lysine-50) immunoprecipitates with DHS and deoxyhypusyl-eIF5A interacts with DOHH in vitro. It was discovered that the deoxyhypusyl-eIF5A:DOHH complex formed in vivo can be detected by immunoprecipitation from cell extracts. Taking advantage of this finding, the effects of the drugs on the enzyme-substrate interaction were tested. FLAG-eIF5A was expressed in 293T cells and complexes that immunoprecipitated with anti-FLAG antibody were immunoblotted and probed with antibodies against DOHH. […] As a further control, the DHS inhibitor GC7 was included in this assay. […] As expected, none of the compounds affected the immunoprecipitation of FLAG-eIF5A (FIG. 2D, middle panel) or the expression of endogenous eIF5A (FIG. 2D, bottom panel). Reciprocally, the interaction between endogenous eIF5A and tagged DOHH was inhibited by CPX and DEF (FIG. 2E, right). Similarly, the interaction of endogenous eIF5A with tagged DHS was inhibited by GC7 (FIG. 2E, left) but resistant to CPX and DEF. It is concluded that CPX and DEF, but not P2 or DFOX, target DOHH and inhibit its interaction with its substrate, deoxyhypusylelF5A.

Row | SMILES | 293T cell death (293T cells) | accumulation of FF mRNA (HIV-1 RNA) | reduction of spliced and unspliced HIV RNAs (HIV-1 RNA) [%] | interaction of endogenous eIF5A with tagged DHS (eIF5A:DHS complex)
1 | Cc1cc(C2CCCCC2)n(O)c(=O)c1 [CPX, 6-cyclohexyl-1-hydroxy-4-methylpyridin-2[1H]-one] | marginal 293T cell death | decreased accumulation of FF mRNA | ~50 | resistant
2 | Cc1c(O)c(=O)ccn1C [DEF, 3-hydroxy-1,2-dimethylpyridin-4(1H)-one] | marginal 293T cell death | decreased accumulation of FF mRNA | ~50 | resistant
